A short description of test [1]: Inhibition of HCV 1a H77 NS5B polymerase after 3 hrs by [3H]UTP incorporation assay. Also on record: species or system Hepatitis C virus (isolate H77).
Test [2] can be described thus: Inhibition of HCV 1b BK NS5B polymerase after 3 hrs by [3H]UTP incorporation assay. Further details: species or system Hepatitis C virus (isolate BK).
Test [3] relates to Hepatitis C virus. The test is described as follows: Antiviral activity against HCV 1b N infected in EN5-3 cells by SEAP reporter gene assay. Type of test: functional, organism-based, Hepacivirus hominis. Conditions: genotype 1b strain N.
In test [4] the test system is Hepatitis C virus. As to the kind of experiment: Antiviral activity against HCV 1a isolate H77 infected in EN5-3 cells by SEAP reporter gene assay. As to conditions: genotype 1a H77, EN5-3. Type of test: functional, organism-based, Hepacivirus hominis.

Turning to `CC(C)(C)CC[C@@]1(C)C(=O)/C(=C2/C=Cc3cc(NS(C)(=O)=O)ccc3N2)C(=O)c2ccccc21`, the results for the IC50 in test [1] and in test [2] were 17 nM and 29 nM, respectively. For the same molecule, the EC50 in the test with Hepatitis C virus [3] was 22 nM; in the test on Hepatitis C virus [4] it was 82 nM.
Consider `CC(C)(C)CC[C@@]1(C)C(=O)/C(=C2/C=Cc3ccccc3N2)C(=O)c2ccccc21`, for which the IC50 in test [1] came out at 1680 nM; in test [2], 5550 nM.
As for `CC1=C/C(=C2\C(=O)c3ccccc3[C@@](C)(CCC(C)(C)C)C2=O)Nc2ccc(NS(C)(=O)=O)cc21`, the IC50 in test [1] was 32 nM; in test [2], 52 nM. Further, the values for the EC50 in the test on Hepatitis C virus [3] and in the test on Hepatitis C virus [4] were 20 nM and 135 nM, respectively.
Consider `CC(C)CCC1=C/C(=C2\C(=O)c3ccccc3[C@@](C)(CCC(C)(C)C)C2=O)Nc2ccc(NS(C)(=O)=O)cc21`, for which the 50% inhibitory concentration (IC50) stood at 4300 nM in test [1] and 1020 nM in test [2].
Consider `CN(C)C(=O)C1=C/C(=C2\C(=O)c3ccccc3[C@@](C)(CCC(C)(C)C)C2=O)Nc2ccc(NS(C)(=O)=O)cc21`, for which the IC50 in test [1] turned out to be 72 nM; in test [2], 238 nM. Also, the EC50 with Hepatitis C virus [3] was 99 nM; with Hepatitis C virus [4], 932 nM.
For `CNC(=O)C1=C/C(=C2\C(=O)c3ccccc3[C@@](C)(CCC(C)(C)C)C2=O)Nc2ccc(NS(C)(=O)=O)cc21`, in that order: 133 nM, 333 nM, 245 nM and 1040 nM.
Turning to `CCOC(=O)C1=C/C(=C2\C(=O)c3ccccc3[C@@](C)(CCC(C)(C)C)C2=O)Nc2ccc(NS(C)(=O)=O)cc21`, the IC50 is 315 nM in test [1] and 739 nM in test [2]. Further, the EC50 turned out to be 660 nM with Hepatitis C virus [3] and 3080 nM in the test with Hepatitis C virus [4].
For `CC(C)(C)CC[C@@]1(C)C(=O)/C(=C2/C=C(CO)c3cc(NS(C)(=O)=O)ccc3N2)C(=O)c2ccccc21` the same measures were 12 nM, 56 nM, 50 nM and 781 nM.
In the case of `CC(C)(C)CC[C@@]1(C)C(=O)/C(=C2/C=C(C=O)c3cc(NS(C)(=O)=O)ccc3N2)C(=O)c2ccccc21`, the IC50 in test [1] is 15 nM; in test [2], 25 nM. The EC50 in the test with Hepatitis C virus [3] came out at 168 nM; in the test with Hepatitis C virus [4], 1200 nM.
`CC(C)(C)CC[C@@]1(C)C(=O)/C(=C2/C=C(C(=O)O)c3cc(NS(C)(=O)=O)ccc3N2)C(=O)c2ccccc21`: the IC50 came out at 3 nM in test [1] and 5 nM in test [2]. The EC50 in the test on Hepatitis C virus [3] came out at 221 nM; in the test on Hepatitis C virus [4], 3320 nM.
For `CC(C)(C)CC[C@@]1(C)C(=O)C(C2=NCc3cc(NS(C)(=O)=O)ccc3N2)=C(O)c2ccccc21`, the IC50 in test [1] came to 830 nM; in test [2], 4200 nM.
In the case of `CC(C)(C)CC[C@@]1(C)C(=O)C(C2=NS(=O)(=O)c3cc(NS(C)(=O)=O)ccc3N2)=C(O)c2ccccc21`, the values for the IC50 in test [1] and in test [2] were 4 nM and 7 nM, respectively. Also, the results for the EC50 with Hepatitis C virus [3] and in the test on Hepatitis C virus [4] were 2 nM and 4 nM, respectively.

For the origin of these results see ChEMBL document CHEMBL1681718, “Hepatitis C NS5B polymerase inhibitors: functional equivalents for the benzothiadiazine moiety” (Bioorg Med Chem Lett, 2011).
